# Test results taken from ChEMBL document CHEMBL4130628, “Identification and Pharmacological Profile of an Indane Based Series of Ghrelin Receptor Full Agonists” (J Med Chem, 2018).
# Molecular target: T1, Growth hormone secretagogue receptor type 1 (Homo sapiens, UniProt Q92847)
# Assay: Displacement of human [125I]-ghrelin from GHS-R1a (unknown origin) expressed in HEK293 cell membranes after 1 hr by radioligand binding assay
# Conditions: read-out: IC50
# T1 sequence (Q92847 whole entry): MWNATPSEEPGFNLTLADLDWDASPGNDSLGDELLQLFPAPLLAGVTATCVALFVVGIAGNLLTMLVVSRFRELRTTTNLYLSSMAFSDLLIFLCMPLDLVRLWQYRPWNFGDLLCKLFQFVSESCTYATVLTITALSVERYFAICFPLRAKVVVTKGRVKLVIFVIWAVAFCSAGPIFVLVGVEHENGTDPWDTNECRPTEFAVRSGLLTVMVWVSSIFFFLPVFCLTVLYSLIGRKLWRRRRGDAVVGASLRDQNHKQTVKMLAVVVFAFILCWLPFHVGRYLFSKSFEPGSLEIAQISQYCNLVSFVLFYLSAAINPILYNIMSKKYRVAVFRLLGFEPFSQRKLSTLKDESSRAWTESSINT
row,IC50,SMILES
1,189 nM,CN1CCCCC(C(=O)N[C@H]2c3ccccc3C[C@@H]2NC(=O)c2ccc3c(ccn3C)c2)C1 (stereo in doubt; 28)
2,184 nM,CN1CCC[C@@H]1CC(=O)N[C@H]1c2ccccc2C[C@@H]1NC(=O)c1ccc2c(ccn2C)c1
3,187 nM,N#Cc1ccc2[nH]c(C(=O)N[C@H]3Cc4ccccc4[C@@H]3NC(=O)c3cnccc3N)cc2c1
4,22 nM,CN1N=C2CCN(C(=O)[C@@H](COCc3ccccc3)NC(=O)C(C)(C)N)C[C@@]2(Cc2ccccc2)C1=O [CAPROMORELIN]
5,14 nM,Nc1ccncc1C(=O)N[C@H]1c2ccccc2C[C@@H]1NC(=O)c1cc2c(F)cc(F)cc2[nH]1
6,71 nM,CN1CCCO[C@H](C(=O)N[C@H]2c3ccccc3C[C@@H]2NC(=O)c2ccc3c(ccn3C)c2)C1
7,343 nM,CN1CC[C@H](C(=O)N[C@H]2c3ccccc3C[C@@H]2NC(=O)c2ccc3c(ccn3C)c2)C1
8,288 nM,CN1CC[C@@H](C(=O)N[C@H]2c3ccccc3C[C@@H]2NC(=O)c2ccc3c(ccn3C)c2)C1
9,246 nM,Cn1c(C(=O)N[C@H]2Cc3ccccc3[C@@H]2NC(=O)c2cnccc2N)cc2ccccc21
10,89 nM,Nc1ccncc1C(=O)N[C@H]1c2ccccc2C[C@@H]1NC(=O)c1nc2cc(F)c(F)cc2[nH]1
11,29 nM,CN1CCC[C@H]1CC(=O)N[C@H]1c2ccccc2C[C@@H]1NC(=O)c1ccc2c(ccn2C)c1
12,528 nM,CN1CCC[C@@H](C(=O)N[C@H]2c3ccccc3C[C@@H]2NC(=O)c2ccc3c(ccn3C)c2)C1
13,556 nM,CN1CCC[C@H](C(=O)N[C@H]2c3ccccc3C[C@@H]2NC(=O)c2ccc3c(ccn3C)c2)C1

# Molecular target: hERG (KCNH2) (Homo sapiens, UniProt Q12809)
# Sequence (Q12809 whole entry): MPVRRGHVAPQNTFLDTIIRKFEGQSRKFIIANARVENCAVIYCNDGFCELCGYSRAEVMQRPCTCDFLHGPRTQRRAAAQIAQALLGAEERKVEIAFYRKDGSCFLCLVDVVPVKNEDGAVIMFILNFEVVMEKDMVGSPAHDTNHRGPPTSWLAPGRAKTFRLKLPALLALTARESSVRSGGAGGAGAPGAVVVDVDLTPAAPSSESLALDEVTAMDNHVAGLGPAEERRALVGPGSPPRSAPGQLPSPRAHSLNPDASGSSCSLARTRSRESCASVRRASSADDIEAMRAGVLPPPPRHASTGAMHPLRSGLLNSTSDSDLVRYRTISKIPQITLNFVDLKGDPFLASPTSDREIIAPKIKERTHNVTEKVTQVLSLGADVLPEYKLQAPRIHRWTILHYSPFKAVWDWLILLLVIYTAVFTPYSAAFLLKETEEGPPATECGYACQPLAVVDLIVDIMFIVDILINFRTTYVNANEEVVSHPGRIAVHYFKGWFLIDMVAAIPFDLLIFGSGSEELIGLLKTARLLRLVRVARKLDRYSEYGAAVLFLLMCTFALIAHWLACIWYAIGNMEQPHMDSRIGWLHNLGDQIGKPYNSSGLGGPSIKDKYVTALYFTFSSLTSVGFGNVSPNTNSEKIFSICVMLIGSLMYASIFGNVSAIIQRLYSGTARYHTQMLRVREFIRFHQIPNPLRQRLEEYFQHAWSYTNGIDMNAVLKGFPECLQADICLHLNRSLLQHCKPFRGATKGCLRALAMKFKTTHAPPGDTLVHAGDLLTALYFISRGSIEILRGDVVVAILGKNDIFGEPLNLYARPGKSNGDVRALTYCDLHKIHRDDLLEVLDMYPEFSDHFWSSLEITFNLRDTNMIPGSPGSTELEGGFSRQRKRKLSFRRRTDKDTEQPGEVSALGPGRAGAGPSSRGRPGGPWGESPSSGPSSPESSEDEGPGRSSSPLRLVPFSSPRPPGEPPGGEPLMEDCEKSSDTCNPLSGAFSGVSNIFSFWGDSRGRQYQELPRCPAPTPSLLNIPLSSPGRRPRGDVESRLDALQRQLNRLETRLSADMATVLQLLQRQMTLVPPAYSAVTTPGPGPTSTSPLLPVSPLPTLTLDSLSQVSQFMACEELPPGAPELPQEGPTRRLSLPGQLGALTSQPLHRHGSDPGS
# Assay: Inhibition of human ERG expressed in CHO cells at 11 uM relative to control
# Format: cell-based
# Conditions: CHO cells that express hERG
row,SMILES,inhibition at 11 µM
1,Cc1ccc2[nH]c(C(=O)N[C@H]3Cc4ccccc4[C@H]3C(=O)NCCN(C)C)cc2c1,42%

# Tested on: not listed separately
# Assay: 1-octanol/aqueous buffer distribution coefficient, log D of compound at pH 7.4
# Format: physicochemical
# Conditions: 1-octanol/aqueous buffer, read-out: logD
row,logD,SMILES
1,2.3,Cc1ccc2[nH]c(C(=O)N[C@H]3Cc4ccccc4[C@H]3C(=O)NCCN(C)C)cc2c1
2,1.8,CN1CCC[C@@H]1CC(=O)N[C@H]1c2ccccc2C[C@@H]1NC(=O)c1ccc2c(ccn2C)c1
3,2.1,N#Cc1ccc2[nH]c(C(=O)N[C@H]3Cc4ccccc4[C@@H]3NC(=O)c3cnccc3N)cc2c1
4,3.1,Nc1ccncc1C(=O)N[C@H]1c2ccccc2C[C@@H]1NC(=O)c1cc2c(F)cc(F)cc2[nH]1
5,2.3,CN1CCCO[C@H](C(=O)N[C@H]2c3ccccc3C[C@@H]2NC(=O)c2ccc3c(ccn3C)c2)C1
6,1.4,CN1CC[C@H](C(=O)N[C@H]2c3ccccc3C[C@@H]2NC(=O)c2ccc3c(ccn3C)c2)C1
7,1.4,CN1CC[C@@H](C(=O)N[C@H]2c3ccccc3C[C@@H]2NC(=O)c2ccc3c(ccn3C)c2)C1
8,2.6,Cc1ccc2[nH]c(C(=O)N[C@H]3Cc4ccccc4[C@@H]3NC(=O)[C@@H]3CNCCOC3)cc2c1
9,4.1,Cn1c(C(=O)N[C@H]2Cc3ccccc3[C@@H]2NC(=O)c2cnccc2N)cc2ccccc21
10,3.7,Cc1ccc2[nH]c(C(=O)N[C@H]3Cc4ccccc4[C@@H]3NC(=O)[C@H]3COCCN(C)C3)cc2c1
11,4,Cn1ccc2cc(C(=O)N[C@H]3Cc4ccccc4[C@@H]3NC(=O)c3cnccc3N)cc(F)c21
12,2.4,Nc1ccncc1C(=O)N[C@H]1c2ccccc2C[C@@H]1NC(=O)c1nc2cc(F)c(F)cc2[nH]1
13,1.7,CN1CCC[C@H]1CC(=O)N[C@H]1c2ccccc2C[C@@H]1NC(=O)c1ccc2c(ccn2C)c1
14,3.1,Cn1ccc2cc(C(=O)N[C@H]3Cc4ccccc4[C@@H]3NC(=O)c3cnccc3N)c(F)cc21
15,1.9,CN1CCC[C@@H](C(=O)N[C@H]2c3ccccc3C[C@@H]2NC(=O)c2ccc3c(ccn3C)c2)C1
16,2.1,CN1CCC[C@H](C(=O)N[C@H]2c3ccccc3C[C@@H]2NC(=O)c2ccc3c(ccn3C)c2)C1

row,SMILES,logD
1,CC(=O)N1CCO[C@H](C(=O)N[C@H]2c3ccccc3C[C@@H]2NC(=O)c2ccc3c(ccn3C)c2)C1,2.2

# Same assay, conditions: octanol/water
row,logD,SMILES
1,1.6,CN1CCCCC(C(=O)N[C@H]2c3ccccc3C[C@@H]2NC(=O)c2ccc3c(ccn3C)c2)C1 (stereo in doubt; 28)

# Molecular target: T1, Growth hormone secretagogue receptor type 1
# Assay: Agonist activity at human GHS receptor assessed as intracellular myo-IP1 secretion after 90 mins by HTRF analysis
# Format: functional, cell-based
# Conditions: read-out: EC50
row,EC50,SMILES
1,76 nM,CN1CCCCC(C(=O)N[C@H]2c3ccccc3C[C@@H]2NC(=O)c2ccc3c(ccn3C)c2)C1 (stereo in doubt; 28)
2,> 740 nM,CN1CCC[C@@H]1CC(=O)N[C@H]1c2ccccc2C[C@@H]1NC(=O)c1ccc2c(ccn2C)c1
3,44 nM,N#Cc1ccc2[nH]c(C(=O)N[C@H]3Cc4ccccc4[C@@H]3NC(=O)c3cnccc3N)cc2c1
4,0.9 nM,CN1N=C2CCN(C(=O)[C@@H](COCc3ccccc3)NC(=O)C(C)(C)N)C[C@@]2(Cc2ccccc2)C1=O [CAPROMORELIN]
5,3 nM,Nc1ccncc1C(=O)N[C@H]1c2ccccc2C[C@@H]1NC(=O)c1cc2c(F)cc(F)cc2[nH]1
6,10 nM,CN1CCCO[C@H](C(=O)N[C@H]2c3ccccc3C[C@@H]2NC(=O)c2ccc3c(ccn3C)c2)C1
7,250 nM,CN1CC[C@H](C(=O)N[C@H]2c3ccccc3C[C@@H]2NC(=O)c2ccc3c(ccn3C)c2)C1
8,129 nM,CN1CC[C@@H](C(=O)N[C@H]2c3ccccc3C[C@@H]2NC(=O)c2ccc3c(ccn3C)c2)C1
9,137 nM,Cc1ccc2[nH]c(C(=O)N[C@H]3Cc4ccccc4[C@@H]3NC(=O)[C@@H]3CNCCOC3)cc2c1
10,15 nM,Cn1c(C(=O)N[C@H]2Cc3ccccc3[C@@H]2NC(=O)c2cnccc2N)cc2ccccc21
11,21 nM,Cc1ccc2[nH]c(C(=O)N[C@H]3Cc4ccccc4[C@@H]3NC(=O)[C@H]3COCCN(C)C3)cc2c1
12,7 nM,Cn1ccc2cc(C(=O)N[C@H]3Cc4ccccc4[C@@H]3NC(=O)c3cnccc3N)cc(F)c21
13,23 nM,Nc1ccncc1C(=O)N[C@H]1c2ccccc2C[C@@H]1NC(=O)c1nc2cc(F)c(F)cc2[nH]1
14,19 nM,CN1CCC[C@H]1CC(=O)N[C@H]1c2ccccc2C[C@@H]1NC(=O)c1ccc2c(ccn2C)c1
15,135 nM,Cn1ccc2cc(C(=O)N[C@H]3Cc4ccccc4[C@@H]3NC(=O)c3cnccc3N)c(F)cc21
16,170 nM,CN1CCC[C@@H](C(=O)N[C@H]2c3ccccc3C[C@@H]2NC(=O)c2ccc3c(ccn3C)c2)C1
17,28 nM,CN1CCC[C@H](C(=O)N[C@H]2c3ccccc3C[C@@H]2NC(=O)c2ccc3c(ccn3C)c2)C1

row,SMILES,EC50
1,CC(=O)N1CCO[C@H](C(=O)N[C@H]2c3ccccc3C[C@@H]2NC(=O)c2ccc3c(ccn3C)c2)C1,> 7700 nM

# Same assay, conditions: read-out: pEC50 (converted)
row,SMILES,EC50
1,CN1CCC[C@@H]1CC(=O)N[C@H]1c2ccccc2C[C@@H]1NC(=O)c1ccc2c(ccn2C)c1,> 794 nM
2,CC(=O)N1CCO[C@H](C(=O)N[C@H]2c3ccccc3C[C@@H]2NC(=O)c2ccc3c(ccn3C)c2)C1,> 10000 nM
